Test results as given in patent US8871280B1, “Compositions and methods for treating fungal activity in plants or soil” (The United States of America, as represented by the …, priority 2011, dated 2014).

Key:
cucumber seeds = assay: Greenhouse assay of seed germination and phytotoxicity, soil treated with plant extract alone; conditions: for % Seed germination (+ PE only) / Avg. seed germination (+ PE only): cucumber
Experimental: Soil treatment: For each treatment, 300 g of dry greenhouse soli (Pro-mix, Premier Horticulture LTD, Red Hill, Pa.) was thoroughly mixed with Rhizoctonia inoculum and incubated for 15 days as described above. […] The infested soil treated with only the carrier solution served as an untreated control. Following the treatment, the soil was thoroughly stirred to mix the contents and incubated in a double polythene bag closed tightly in the dark at room temperature for four days for fumigation to occur. Following the incubation, the bag was opened to allow as much PE to dissipate as possible. This was done by sprinkling the surface soil with sterile water every other day, and stirring the soil once every day for seven days. For assay of effect on seed germination and phytotoxicity of the plant extracts, soil was treated with plant extract formulations alone.
Greenhouse studies: Treated soil from each treatment was distributed to 4-inch plastic pots into which 12 seeds of cucumbers (95-100% germination) were sown and lightly watered to keep soil moist. The treatments were color coded and pots were randomized across treatment. All plants were kept in a greenhouse between 20° C. (night) to 26° C. (day) with 14 h of light. There were three pots per treatment in each experiment, and the experiment was repeated three times. As positive control, a broad spectrum popular soil fungicide Banrot® 40 WP (The Scotts Company, Ohio) was used following manufacturer's recommendation to control the disease. Total number of seedlings without any sign of damping off in each pot was recorded and percentage of disease suppression were calculated four weeks after sowing cucumber seeds.

Rhizoctonia solani [1] = assay: Poison food technique (contact action), mycelial growth inhibition in PDA; format: cell-based, Rhizoctonia solani AG-4, isolate Rs 23A; conditions: for PoisonB1 % inhibition: poison bed experiment 1; for PoisonB2 % inhibition: poison bed experiment 2
Experimental: (§1) Fungal isolate and preparation of inoculum: Rhizoctonia solani AG-4, isolate Rs 23A is a highly virulent pathogenic isolate which infects many vegetables, ornamentals and turfgrasses (Lewis, J. A., and G. C. Papavizas, Soil Biology and Biochemistry, 9:195-201 (1987)). The fungus was grown in potato dextrose agar (PDA) plates and fungal plugs from the freshly growing mycelium were mixed with moist sterilized cracked wheat in a 2 L flask for 15 days in dark at 22° C. (Lakshman, D. K., et al., Proceedings of the National Academy of Science, USA, 95: 6425-6429 (1998)). The infested wheat was air dried in a sterile hood for 3 days, blended in a homogenizer and sieved through a mesh and stored at 2° C. before soil inoculation. A dose response of the inocula was carried out by thoroughly mixing using 0.25, 0.5, 0.75, 1.0, 1.25 and 1.50 g inoculums per Kg dry weight potting soil plus sterile water to maintain 25-30% moisture and incubating at room temperature for two weeks before sowing cucumber (cv muncher) seeds with the infested soil. The percent germination and post-emergence damping off of cucumber seedlings were recorded. The lowest inoculums dose that induced 100% postemergence damping off was estimated to be 1 to 1.25 g/Kg soil for inocula prepared over the span of the experiments. For soil fumigation with plant extracts (PEs), each time the minimum inoculum dose giving rise to 100% damping off was used.
In vitro bioassays: Two in vitro bioassay methods were used to investigate the mycelial growth inhibitory potentials of PEs. In the poison food technique, test chemical/plant extract was mixed at concentrations of 15, 30, 45, 60, 75, and 150 μl per 20 ml autoclaved PDA at 50° C., poured on three sterile disposable plastic plates (100×15 mm, Fisherbrand) at 20 ml/plate and cooled to room temperature to solidify (Dhingra, O.D., and J. B. Sinclair, 1995, Basic Plant Pathology Methods, 2nd Edition, Lewis Publishers, Boca Raton and London). […] Each plate was seeded in the center with a 5 mm diameter agar disk of the freshly grown Rhizoctonia pathogen, mycelial side facing the medium, and sealed with stretched Parafilm® M (Fisher Scientific). The plates were incubated in the dark at room temperature and when the pathogen reached to the edge of the plates in the control treatment (soybean oil), radial measurement of fungal growth in plates treated with PEs were recorded by taking three measurements from each plate. The experiment was repeated one more time. The percent mycelial growth inhibition (MGI) due to PE was calculated using the following formula: […] where dc=Avg. radial growth in mm of pathogen in control plate; dt=avg. radial growth in mm of pathogen in treated plate.

Rhizoctonia solani [2] = assay: Fungicidal vs fungistatic potential (regrowth of mycelial plugs on fresh PDA, 7 days); format: cell-based, Rhizoctonia solani AG-4, isolate Rs 23A
Experimental: The fungicidal and fungistatic potential of the PEs were determined by the method described by Garber and Houstan (Garber R. H., and B. R. Houston, Phytopathology, 49: 449-450 (1959)). In brief, three 5 mm diameter plugs were taken from the peripheral mycelial growth from each plate and placed in a fresh PDA plate. Following incubation at room temperature for 7 days, observations were recorded for new mycelial growth (fungistatic) or no mycelial growth (fungicidal). As control, peripheral mycelial plugs from soybean oil amended PDA plates were checked for fresh mycelial growth in fresh PDA plates.

Rhizoctonia solani [3] = assay: Greenhouse suppression of damping off of cucumber seedlings in R. solani infested soil amended with plant extract; format: in vivo, Rhizoctonia solani AG-4, isolate Rs 23A; conditions: for % Disease suppression (+ PE + R. solani): cucumber damping off, soil amendment at 0.3% (v/w), four weeks after sowing
Rhizoctonia solani [4] = assay: Filter disk fumigation method, mycelial growth inhibition on PDA; format: cell-based, Rhizoctonia solani AG-4, isolate Rs 23A; conditions: for Fumig1 % inhibition: fumigation experiment 1; for Fumig2 % inhibition: fumigation experiment 2
Experimental: as §1
In the second protocol, the chemical was kept not in direct contact with the fungus and we hypothesized that the plant extract will most likely influence the growth of the pathogen by fumigation action. In this approach, three sterile 15 mm filter paper (Whatman International Ltd, Maidstone, UK) disks were placed on the edge of each of three plates on the PDA. Each disk was impregnated in the center with various amounts (5-50 ul/disk) of the test solution/suspension. For negative control, only soybean oil was placed in the filter disk. […] The average radial growth was calculated and the experiment was repeated one more time. Percent growth inhibition was calculated as reported for poison bed assay.

[5] = in vivo, 0.3 % of PE in soil (3000 ppm)
[6] = 12 seeds sown per pot, soil amended with 0.3% PE, no pathogen
[7] = soil amended with 0.3% PE, no pathogen

Row | SMILES | PoisonB1 % inhibition (Rhizoctonia solani [1]; amount oil 15 μL/20 mL plate) [%] | PoisonB2 % inhibition (Rhizoctonia solani [1]; amount oil 15 μL/20 mL plate) [%] | PoisonB1 % inhibition (Rhizoctonia solani [1]; amount oil 30 μL/20 mL plate) [%] | PoisonB2 % inhibition (Rhizoctonia solani [1]; amount oil 30 μL/20 mL plate) [%] | PoisonB1 % inhibition (Rhizoctonia solani [1]; amount oil 45 μL/20 mL plate) [%] | PoisonB2 % inhibition (Rhizoctonia solani [1]; amount oil 45 μL/20 mL plate) [%] | PoisonB1 % inhibition (Rhizoctonia solani [1]; amount oil 60 μL/20 mL plate) [%] | PoisonB2 % inhibition (Rhizoctonia solani [1]; amount oil 60 μL/20 mL plate) [%] | PoisonB1 % inhibition (Rhizoctonia solani [1]; amount oil 75 μL/20 mL plate) [%] | PoisonB2 % inhibition (Rhizoctonia solani [1]; amount oil 75 μL/20 mL plate) [%] | PoisonB1 % inhibition (Rhizoctonia solani [1]; amount oil 150 μL/20 mL plate) [%] | PoisonB2 % inhibition (Rhizoctonia solani [1]; amount oil 150 μL/20 mL plate) [%] | Effect (fumigation) (Rhizoctonia solani [2]; amount oil 15 μL/20 mL plate) | Effect (fumigation) (Rhizoctonia solani [2]; amount oil 30 μL/20 mL plate) | Effect (fumigation) (Rhizoctonia solani [2]; amount oil 45 μL/20 mL plate) | Effect (fumigation) (Rhizoctonia solani [2]; amount oil 60 μL/20 mL plate) | Effect (fumigation) (Rhizoctonia solani [2]; amount oil 75 μL/20 mL plate) | Effect (fumigation) (Rhizoctonia solani [2]; amount oil 150 μL/20 mL plate) | % Disease suppression (+ PE + R. solani) (Rhizoctonia solani [3]) [%] | Fumig1 % inhibition (Rhizoctonia solani [4]; amount oil 15 μL/20 mL plate) [%] | further results
1 | CC=Cc1ccc(OC)cc1 [Anethole] | 100 | 100 | 100 | 100 | 100 | 100 | 100 | 100 | 100 | 100 | 100 | 100 | S | S | S | S | S | S | 58.33 | 99 | % Seed germination (+ PE only) (cucumber seeds; [5]): 75.00%; Avg. seed germination (+ PE only) (cucumber seeds; [5]): 9.00; Inhibition of R. solani growth by contact (poison bed assay), in words (Rhizoctonia solani [1]; in vitro, PDA): potent inhibitors; Effect (poison bed, contact action) (Rhizoctonia solani [2]; amount oil 15 μL/20 mL plate): S; Effect (poison bed, contact action) (Rhizoctonia solani [2]; amount oil 30 μL/20 mL plate): S; Fungicidal vs fungistatic nature at higher concentrations (Rhizoctonia solani [2]; in vitro, higher concentrations): fungicidal; Avg. seed Germination (+ PE + R. solani) (Rhizoctonia solani [3]; cucumber, 12 seeds sown per pot, infested soil amended with 0.3% PE): 7.00; Fumig2 % inhibition (Rhizoctonia solani [4]; amount oil 15 μL/20 mL plate): 90%; Fumig2 % inhibition (Rhizoctonia solani [4]; amount oil 30 μL/20 mL plate): 85%; Fumig2 % inhibition (Rhizoctonia solani [4]; amount oil 45 μL/20 mL plate): 86%; Fumig2 % inhibition (Rhizoctonia solani [4]; amount oil 60 μL/20 mL plate): 89%; Fumig2 % inhibition (Rhizoctonia solani [4]; amount oil 75 μL/20 mL plate): 97%; Fumig2 % inhibition (Rhizoctonia solani [4]; amount oil 150 μL/20 mL plate): 102%; Inhibition of R. solani growth by fumigation action, in words (Rhizoctonia solani [4]; in vitro, filter disk): potent inhibitors
2 | Cc1ccc(C(C)C)cc1O [Carvacrol] | 100 | 100 | 100 | 100 | 100 | 100 | 100 | 100 | 100 | 100 | 100 | 100 | S | S | S | S | S | S | 47.25 | 88 | Avg. seed germination (+ PE only) (cucumber seeds; [6]): 4.00; % Seed germination (+ PE only) (cucumber seeds; [7]): 33.33%; Phytotoxicity (cucumber seed germination and seedling growth), in words (cucumber seeds; greenhouse, soil amendment): slightly inhibited; Fumig2 % inhibition (Rhizoctonia solani [4]; amount oil 15 μL/20 mL plate): 87%; Fumig1 % inhibition (Rhizoctonia solani [4]; amount oil 30 μL/20 mL plate): 94%; Fumig2 % inhibition (Rhizoctonia solani [4]; amount oil 30 μL/20 mL plate): 91%; Fumig1 % inhibition (Rhizoctonia solani [4]; amount oil 45 μL/20 mL plate): 100%; Fumig2 % inhibition (Rhizoctonia solani [4]; amount oil 45 μL/20 mL plate): 91%; Fumig1 % inhibition (Rhizoctonia solani [4]; amount oil 60 μL/20 mL plate): 100%; Fumig2 % inhibition (Rhizoctonia solani [4]; amount oil 60 μL/20 mL plate): 93%; Fumig1 % inhibition (Rhizoctonia solani [4]; amount oil 75 μL/20 mL plate): 99%; Fumig2 % inhibition (Rhizoctonia solani [4]; amount oil 75 μL/20 mL plate): 96%; Fumig1 % inhibition (Rhizoctonia solani [4]; amount oil 150 μL/20 mL plate): 100%; Fumig2 % inhibition (Rhizoctonia solani [4]; amount oil 150 μL/20 mL plate): 100%
3 | CC(C)=CCC/C(C)=C/CO [Geraniol] | 100 | 100 | 100 | 100 | 100 | 100 | 100 | 100 | 100 | 100 | 100 | 100 | S | S | S | S | S | S | 77.75 | 51 | Avg. seed germination (+ PE only) (cucumber seeds; [6]): 11.33; % Seed germination (+ PE only) (cucumber seeds; [7]): 94.41%; Fumig2 % inhibition (Rhizoctonia solani [4]; amount oil 15 μL/20 mL plate): 15%; Fumig1 % inhibition (Rhizoctonia solani [4]; amount oil 30 μL/20 mL plate): 56%; Fumig2 % inhibition (Rhizoctonia solani [4]; amount oil 30 μL/20 mL plate): 34%; Fumig1 % inhibition (Rhizoctonia solani [4]; amount oil 45 μL/20 mL plate): 62%; Fumig2 % inhibition (Rhizoctonia solani [4]; amount oil 45 μL/20 mL plate): 31%; Fumig1 % inhibition (Rhizoctonia solani [4]; amount oil 60 μL/20 mL plate): 66%; Fumig2 % inhibition (Rhizoctonia solani [4]; amount oil 60 μL/20 mL plate): 54%; Fumig1 % inhibition (Rhizoctonia solani [4]; amount oil 75 μL/20 mL plate): 73%; Fumig2 % inhibition (Rhizoctonia solani [4]; amount oil 75 μL/20 mL plate): 67%; Fumig1 % inhibition (Rhizoctonia solani [4]; amount oil 150 μL/20 mL plate): 77%; Fumig2 % inhibition (Rhizoctonia solani [4]; amount oil 150 μL/20 mL plate): 61%
